Data taken from ChEMBL document CHEMBL1152105, “Anthraquinones related to rhein inhibit glucose uptake into chondrocytes. A mechanism for anti-osteoarthritis drugs?” (1997).

test: Percent inhibition of glucose uptake into chondrocytes prepared from the metacarpophalageal joints of mature cow at concentration of 50 uM; format: functional; settings: Bos taurus

Row | SMILES | inhibition at 50 µM
1 | O=C1c2cccc(O)c2C(=O)c2c(O)cc(-c3nn[nH]n3)cc21 | 103%
2 | COc1ccc(OC)c2c1C(=O)c1ccc(-c3nn[nH]n3)cc1C2=O | 81.8%
3 | COc1cc(C(=O)O)c(OC)c2c1C(=O)c1ccccc1C2=O | 14%
4 | CCOc1cccc2c1C(=O)c1c(OCC)cc(C(=O)O)cc1C2=O | 18.5%
5 | COc1cccc2c1C(=O)c1c(OC)cc(C(=O)O)cc1C2=O | -1.9%
6 | CC(=O)Oc1ccc2c(c1)C(=O)c1cc(C(=O)O)ccc1C2=O | 1.6%
7 | COc1cccc2c1C(=O)c1c(OC)cc(-c3nn[nH]n3)cc1C2=O | 36.2%
8 | CCOc1cccc2c1C(=O)c1c(OCC)cc(-c3nn[nH]n3)cc1C2=O | 92%
9 | COc1cc(C(=O)O)cc2c1C(=O)c1c(OC)ccc(OC)c1C2=O | 4.8%
10 | COc1ccc(OC)c2c1C(=O)c1ccc(C(=O)O)cc1C2=O | 25.3%
11 | O=C(O)c1cc(O)c2c(c1)C(=O)c1c(O)ccc(O)c1C2=O | 22.1%
12 | CCOc1ccc(OCC)c2c1C(=O)c1ccc(C(=O)O)cc1C2=O | 37.7%
13 | O=C(O)c1ccc2c(c1)C(=O)c1cc(O)ccc1C2=O | 16.9%
14 | O=C(O)c1cc(O)c2c(c1O)C(=O)c1ccccc1C2=O | 24.9%
15 | CC(=O)Oc1ccc(OC(C)=O)c2c1C(=O)c1ccc(C(=O)O)cc1C2=O | 14.8%
16 | CCCOc1cccc2c1C(=O)c1c(OCCC)cc(C(=O)O)cc1C2=O | 56.7%
17 | Oc1cc(O)c2c(c1)O[C@H](c1ccc(O)c(O)c1)[C@@H](O)C2 [CIANIDANOL] | 12.1%
18 | O=C(CCc1ccc(O)cc1)c1c(O)cc(O)cc1O[C@@H]1O[C@H](CO)[C@@H](O)[C@H](O)[C@H]1O [PHLORIZIN] | 11.9%
19 | O=C(O)c1cc(O)c2c(c1)C(=O)c1cccc(O)c1C2=O [RHEIN] | 3%
